Laboratory results as given in patent US5639735A, “Antitumor antibiotic compounds: hayumicins and analogs thereof” (Bristol-Myers Squibb Company, priority 1994, dated 1997).
Converted amounts (≈) assume the structure as drawn.

Assays:
[1] = system: bacteria (especially gram positive bacteria); test: Antibiotic activity (general statement); format: cell-based; conditions: inhibiting the growth of bacteria
tumors = test: Antitumor activity (general statement); conditions: no test described
Bacillus subtilis = test: Agar dilution MIC; format: cell-based; conditions: A No. 9506A, 37° C., 18 hours
Description: (§1) The following methodology was used to determine the minimum inhibitory concentration (hereinafter referred to as the "MIC") of the compounds of this invention. The test organisms were grown in 20 mL of Antibiotic Assay Broth (Difco) by inoculating the broth (in tubes) with a loopful of the organism from a BHI (Difco) agar slant. The inoculated tubes were incubated at 37° C. for 18 to 24 hours. These cultures were assumed to contain 10^9 colony forming units (CFU) per mL. The cultures were diluted 1:100 to give a final inoculum level of 10^7 CFU per mL; dilutions were made with Yeast Beef Broth (Difco). The antibiotics Hayumicin A and Hayumicin B of the present invention were dissolved in suitable diluents at a concentration of 1000 μg/mL. Two-fold dilutions were made in Yeast Beef Broth (Difco), resulting in a range from 1000 μg/mL to 0.5 μg/mL. A 1.5 mL portion of each dilution was placed into individual petri dishes to which 13.5 mL of K-10 agar was added. The composition of K-10 agar is:
(§2) The final drug concentration in agar of Hayumicin A or Hayumicin B ranged from […] to 0.05 μg/mL. Organism growth control plates containing agar only were prepared and inoculated before and after the test plates. The organisms were applied to the surface of each plate so that each contained a final inoculum of 10^5 CFU. The plates were incubated at 37° C. for 18 hours and the MICs determined. The MIC is the lowest concentration of compound inhibiting growth of the organism.

Escherichia coli = test: Agar dilution MIC; format: cell-based; conditions: 18 h
Description: as §1, §2

Klebsiella oxytoca = test: Agar dilution MIC; format: cell-based; conditions: A No. 203454, 37° C., 18 hours
Description: as §1, §2

Klebsiella pneumoniae = test: Agar dilution MIC; format: cell-based; conditions: A No. 9664, 37° C., 18 hours
Description: as §1, §2

Micrococcus luteus = test: Agar dilution MIC; format: cell-based; conditions: A No. 9852, 37° C., 18 hours
Description: as §1, §2

Proteus mirabilis = test: Agar dilution MIC; format: cell-based; conditions: A No. 9900, 37° C., 18 hours
Description: as §1, §2

Pseudomanas aeruginosa = test: Agar dilution MIC; format: cell-based; conditions: A No. 21508, 37° C., 18 hours
Description: as §1, §2

Staphylococcus aureus = test: Agar dilution MIC; format: cell-based; conditions: 18 h
Description: as §1, §2

Streptococcus agalactiae = test: Agar dilution MIC; format: cell-based; conditions: A No. 22567, 37° C., 18 hours
Description: as §1, §2

Streptococcus pneumoniae = test: Agar dilution MIC; format: cell-based; conditions: A No. 9585, 37° C., 18 hours
Description: as §1, §2

Streptococcus pyogenes = test: Agar dilution MIC; format: cell-based; conditions: A No. 9604, 37° C., 18 hours
Description: as §1, §2

Row | Structure (SMILES) | antibiotic activity [1] | antitumor activity (tumors) | solubility in chloroform (Solubility) | solubility in dimethylsulfoxide (Solubility) | solubility in ether (Solubility) | solubility in methanol (Solubility) | solubility in n-hexane (Solubility) | solubility in pyridine (Solubility) | solubility in water (Solubility) | MIC (Bacillus subtilis) [µg/mL] | MIC (Escherichia coli; A No. 20697, 37° C.) [µg/mL] | MIC (Escherichia coli; A No. 22292, 37° C.) [µg/mL] | MIC (Escherichia coli; A No. 28290, 37° C.) [µg/mL] | MIC (Klebsiella oxytoca) [µg/mL] | MIC (Klebsiella pneumoniae) [µg/mL] | MIC (Micrococcus luteus) [µg/mL] | MIC (Proteus mirabilis) [µg/mL] | MIC (Pseudomanas aeruginosa) [µg/mL] | MIC (Staphylococcus aureus; A No. 9537, 37° C.) [µg/mL] | MIC (Staphylococcus aureus; A No. 9606, 37° C.) [µg/mL] | other results
1 | CO[C@@H]1[C@H](O)[C@@H](O)[C@@H](O[C@H]2[C@H](Oc3cccc4c(=O)c5c(N)c(=O)c6ccc(C)c7c(=O)oc(c-5c67)c34)O[C@H](C)[C@H](O)[C@@H]2O)O[C@@H]1C [Hayumicin C1, 5-amino-10-[[6-deoxy-2-O -(6-deoxy-4-O-methyl-α-D-galactopyranosyl)-β-D -galactopyranosyl]oxy]-1-methyl-4H -benzo[h]naphtho[8,1,2-cde][1]benzopyran-4,6,12-trione] | possess antibiotic activity | antitumor activity | slightly soluble | soluble | practically insoluble | slightly soluble | practically insoluble | soluble | practically insoluble | – | – | – | – | – | – | – | – | – | – | – | –
2 | Cc1ccc2c(=O)c(N)c3c(=O)c4cccc(O[C@@H]5O[C@H](C)[C@H](O)[C@H](O)[C@H]5O[C@H]5O[C@H](C)[C@H](O)[C@H](O)[C@H]5O)c4c4oc(=O)c1c2c4-3 [Hayumicin D, 5-amino-10-[[6-deoxy-2-O -(6-deoxy-α-D-galactopyranosyl)-β-D -galactopyranosyl]oxy]-1-methyl-4H -benzo[h]naphtho[8,1,2-cde][1]benzopyran-4,6,12-trione] | possess antibiotic activity | antitumor activity | slightly soluble | soluble | practically insoluble | slightly soluble | practically insoluble | soluble | practically insoluble | – | – | – | – | – | – | – | – | – | – | – | –
3 | CO[C@@H]1[C@@H](O)[C@@H](O[C@H]2[C@H](Oc3cccc4c(=O)c5c(N)c(=O)c6ccc(C)c7c(=O)oc(c-5c67)c34)O[C@H](C)[C@H](O)[C@@H]2O)O[C@H](C)[C@@H]1OC [Hayumicin B, 5-amino-10-[[6-deoxy-2-O -(6-deoxy-3,4-di-O-methyl-α-D-galactopyranosyl)-β-D -galactopyranosyl]oxy]-1-methyl-4H -benzo[h]naphtho[8,1,2-cde][1]benzopyran-4,6,12-trione] | possess antibiotic activity | antitumor activity | slightly soluble | readily soluble | – | slightly soluble | insoluble | readily soluble | insoluble | 4 (≈ 6.01 µM) | > 128 | 128 (≈ 192 µM) | > 128 | > 128 | > 128 | 1 (≈ 1.5 µM) | > 128 | > 128 | 64 (≈ 96.1 µM) | 128 (≈ 192 µM) | MIC (Staphylococcus aureus; A No. 24227, 37° C.): 128 µg/mL (≈ 192 µM); MIC (Streptococcus agalactiae): 8 µg/mL (≈ 12 µM); MIC (Streptococcus pneumoniae): 8 µg/mL (≈ 12 µM); MIC (Streptococcus pyogenes): 8 µg/mL (≈ 12 µM)
4 | CO[C@@H]1[C@@H](O)[C@@H](O[C@H]2[C@H](Oc3cccc4c(=O)c5c(O)c(=O)c6ccc(C)c7c(=O)oc(c-5c67)c34)O[C@H](C)[C@H](O)[C@@H]2O)O[C@H](C)[C@@H]1OC [Hayumicin A, 10-[[6-deoxy-2-O-(6-deoxy-3,4-di-O-methyl-α-D-galactopyranosyl)-β-D -galactopyranosyl]oxy]-5-hydroxy-1-methyl-4H -benzo[h]naphtho[8,1,2-cde][1]benzopyran-4,6,12-trione] | possess antibiotic activity | antitumor activity | slightly soluble | readily soluble | – | slightly soluble | insoluble | readily soluble | insoluble | 32 (≈ 48 µM) | > 128 | 16 (≈ 24 µM) | > 128 | > 128 | > 128 | 1 (≈ 1.5 µM) | > 128 | > 128 | 64 (≈ 96 µM) | 128 (≈ 192 µM) | MIC (Staphylococcus aureus; A No. 24227, 37° C.): 128 µg/mL (≈ 192 µM); MIC (Streptococcus agalactiae): 8 µg/mL (≈ 12 µM); MIC (Streptococcus pneumoniae): 16 µg/mL (≈ 24 µM); MIC (Streptococcus pyogenes): 8 µg/mL (≈ 12 µM)
5 | CO[C@H]1[C@@H](O)[C@@H](C)O[C@H](O[C@H]2[C@H](Oc3cccc4c(=O)c5c(N)c(=O)c6ccc(C)c7c(=O)oc(c-5c67)c34)O[C@H](C)[C@H](O)[C@@H]2O)[C@@H]1O [Hayumicin C2, B-amino-10-[[6-deoxy-2-O -(6-deoxy-3-O-methyl-α-D-galactopyranosyl)-β-D -galactopyranosyl]oxy]-1-methyl-4H -benzo[h]naphtho[8,1,2-cde][1]benzopyran-4,6,12-trione] | possess antibiotic activity | antitumor activity | slightly soluble | soluble | practically insoluble | slightly soluble | practically insoluble | soluble | practically insoluble | – | – | – | – | – | – | – | – | – | – | – | –
